According to patent US20230081720A1, “MCL-1 INHIBITOR ANTIBODY-DRUG CONJUGATES AND METHODS OF USE” (NOVARTIS AG, priority 2019, published 2023):
Marks after values point to notes of the source that are not given here.

Assays:
Mcl-1 protein = Mcl-1 protein (Homo sapiens, UniProt Q07820); assay: Inhibition of Mcl-1 by fluorescence polarization (FP); type: binding; details: fluorescein-labelled ligand 1 nM, Mcl-1 protein 5 nM
Description: The relative binding potency of each compound was determined via Fluorescence Polarization (FP).
An 11-point serial dilution of each compound was prepared in DMSO and 2 PI transferred into flat bottomed, low binding, 384-well plate (final DMSO concentration 5%). 38 μl of buffer (10 mM 4-(2-hydroxyethyl)-1-piperazineethanesulfonic acid [HEPES], 150 mM NaCl, 0.05% Tween 20, pH 7.4), containing the fluorescein-labelled ligand (final concentration 1 nM) and Mcl-1 protein (final concentration 5 nM) was then added.

[1] = system: NCI-H929 multiple myeloma cell line; assay: In vitro cytotoxicity, Microculture Tetrazolium Assay (MTT); type: cell-based; details: NCI-H929 cells, 48 hours
Description: Cytotoxicity studies were carried out on the NCI-H929 multiple myeloma cell line. The cells were distributed onto microplates and exposed to the test compounds for 48 hours.

[2] = system: EOL1 human acute myeloid (eosinophilic) leukemia xenograft model; assay: EOL1 xenograft, CD74-ADCs Fc silent with different linker payloads (Example 15); type: in vivo, mice; details: 2.5 mg/kg i.v. once + Venetoclax 50 mg/kg p.o. qd
Description: To optimize the linker payload, efficacy of 6 CD74-ADCs with different linker payloads (L5-P1, L30-P1, L31-P1, L32-P1, L33-P1 and L34-P1) was evaluated in the EOL1 model in vivo.
EOL1 luciferase transfected cells were cultured at 37° C. in an atmosphere of 5% CO2 in air in RPM11640 (BioConcept Ltd. Amimed) supplemented with 10% FCS (BioConcept Ltd. Amimed, #2-01 F30-1), 2 mM L-glutamine (BioConcept Ltd. Amimed, #5-10K00-H) and 1 mM sodium pyruvate (BioConcept Ltd. Amimed, #5-60F00-H), 10 mM HEPES (Gibco #11560496). To establish EOL1 xenografts cells were harvested and re-suspended in HBSS (Gibco, #14175) before injecting 100 μL containing 5×10^6 cells subcutaneously in the flanks of female SCID beige mice (Charles River, Germany). Tumor growth was monitored regularly post cell inoculation and animals were randomized into treatment groups (n=6) with a mean tumor volume of about 130 mm^3. The ADCs were administered intravenously (iv) once at the start of treatment at 2.5 mg/kg or at 3.3 mg/kg in combination with venetoclax which was administered orally (po) daily (qd) at 50 mg/kg. Doses were adjusted to individual mouse body weights. The iv dose volume was 10 ml/kg and each ADC was dissolved in 0.9% (w/v) NaCl in water. Tumor volume data on day 10 post treatment were analyzed statistically using one way ANOVA post hoc Tukey's multiple comparisons test (Indigo Software). Results are presented as mean±SEM. As a measure of efficacy the % T/C value is calculated on day 10 according to:
(Δtumor volume^treated/Δtumor volume^control)*100
Tumor regression was calculated according to:
−(Δtumor volume^treated/tumor volume^treated at start)*100
Where Δtumor volumes represent the mean tumor volume on the evaluation day minus the mean tumor volume at the start of the experiment.

EOL-1 = type: cell-based
Description: (§1) Cell lines were cultured in media that is optimal for their growth at 5% CO2, 37° C. in a tissue culture incubator. Prior to seeding for the proliferation assay, the cells were split at least 2 days before the assay to ensure optimal growth density. […] Cell viability and cell density were determined using a cell counter (Vi-Cell XR Cell Viability Analyzer, Beckman Coulter). […] Cells were seeded at a density of 1,000 cells per well in 45 μL of standard growth media. Plates were incubated at 5% CO2, 37° C. overnight in a tissue culture incubator. […] Each drug concentration was tested in quadruplets. […] Plates were incubated at room temperature for 10 minutes to stabilize luminescent signals prior to reading using a luminescence reader (EnVision Multilabel Plate Reader, PerkinElmer). To evaluate the effect of the drug treatments, luminescent counts from wells containing untreated cells (100% viability) were used to normalize treated samples.

MONO-MAC-1 = type: cell-based; details: CD74 ADC with the named linker-payload, 5 days
Description: as §1

NOMO-1 = type: cell-based
Description: as §1

[3] = CD74 ADC with the named linker-payload, 5 days

Sequence of Mcl-1 protein (Q07820 whole entry): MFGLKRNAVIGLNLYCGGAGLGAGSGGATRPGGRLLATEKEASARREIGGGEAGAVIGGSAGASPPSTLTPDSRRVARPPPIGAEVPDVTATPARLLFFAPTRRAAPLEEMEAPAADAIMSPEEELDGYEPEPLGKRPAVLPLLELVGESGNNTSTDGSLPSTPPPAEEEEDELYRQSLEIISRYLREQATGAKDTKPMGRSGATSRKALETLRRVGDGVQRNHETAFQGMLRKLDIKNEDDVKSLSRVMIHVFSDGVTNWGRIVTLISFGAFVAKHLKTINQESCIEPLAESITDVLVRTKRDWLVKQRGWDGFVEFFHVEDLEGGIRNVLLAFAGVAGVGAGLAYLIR

Cc1c(-c2c(-c3ccc(F)cc3)sc3ncnc(O[C@H](Cc4ccccc4OCc4ccnn4CC(F)(F)F)C(=O)O)c23)ccc(OCCN2CCN(C)CC2)c1Cl (atropisomer, axis not shown) [C12, (2R)-2-{[(5Sa)-5-{3-chloro-2-methyl-4-[2-(4-methylpiperazin-1-yl)ethoxy]phenyl}-6-(4-fluorophenyl)thieno[2,3-d]pyrimidin-4-yl]oxy}-3-(2-{[1-(2,2,2-trifluoroethyl)-1H-pyrazol-5-yl]methoxy}phenyl)propanoic Acid]
IC50 (Mcl-1 protein): 5.9 nM

COc1ccccc1-c1nccc(COc2ccccc2C[C@@H](Oc2ncnc3sc(-c4ccc(F)c(O)c4)c(-c4ccc(OCCN5CC[N+](C)(CCCS(=O)(=O)[O-])CC5)c(Cl)c4C)c23)C(=O)O)n1 [C2, (2R)-2-[(5Sa)-5-[3-chloro-2-methyl-4-[2-[4-methyl-4-(3-sulfopropyl)piperazin-4-ium-1-yl]ethoxy]phenyl]-6-(4-fluoro-3-hydroxy-phenyl)thieno[2,3-d]pyrimidin-4-yl]oxy-3-[2-[[2-(2-methoxyphenyl)pyrimidin-4-yl]methoxy]phenyl]propanoic acid]
IC50 (Mcl-1 protein): 2.6 nM | IC50 ([1]; Homo sapiens): 8510 nM

COc1ccccc1-c1nccc(COc2ccccc2C[C@@H](Oc2ncnc3sc(-c4ccc(F)cc4)c(-c4ccc(OCCN5CCNCC5)c(Cl)c4C)c23)C(=O)O)n1 [C3, (2R)-2-[(5Sa)-5-[3-chloro-2-methyl-4-(2-piperazin-1-ylethoxy)phenyl]-6-(4-fluorophenyl)thieno[2,3-d]pyrimidin-4-yl]oxy-3-[2-[[2-(2-methoxyphenyl)pyrimidin-4-yl]methoxy]phenyl]propanoic acid]
IC50 (Mcl-1 protein): 0.948 nM | IC50 ([1]; Homo sapiens): 42 nM

Cc1c(-c2c(-c3ccc(F)cc3)sc3ncnc(OC(Cc4ccccc4OCc4ccnc(-c5ccc(CP(=O)(O)O)cc5)n4)C(=O)O)c23)ccc(OCCN2CCNCC2)c1Cl [C4, (2R)-2-[(5Sa)-5-[3-chloro-2-methyl-4-(2-piperazin-1-ylethoxy)phenyl]-6-(4-fluorophenyl)thieno[2,3-d]pyrimidin-4-yl]oxy-3-[2-[[2-[4-(phosphonomethyl)phenyl]pyrimidin-4-yl]methoxy]phenyl]propanoic acid]
IC50 (Mcl-1 protein): 2.6 nM | IC50 ([1]; Homo sapiens): 3210 nM

Cc1c(-c2c(-c3ccc(F)cc3)sc3ncnc(O[C@H](Cc4ccccc4OCc4ccnc(-c5ccccc5CO)n4)C(=O)O)c23)ccc(OCCN2CCN(C)CC2)c1Cl [C6, (2R)-2-{[(5Sa)-5-{3-chloro-2-methyl-4-[2-(4-methylpiperazin-1-yl)ethoxy]phenyl}-6-(4-fluorophenyl)thieno[2,3-d]pyrimidin-4-yl]oxy}-3-[2-({2-[2-(hydroxymethyl)phenyl]pyrimidin-4-yl}methoxy)phenyl]propanoic acid]
IC50 (Mcl-1 protein): 1.18 nM

CC#Cc1sc2ncnc(O[C@H](Cc3ccccc3OCc3ccnc(-c4ccccc4OC)n3)C(=O)O)c2c1-c1ccc(OCCN2CCN(C)CC2)c(Cl)c1CC [C7, (2R)-2-[(5Sa)-5-[3-chloro-2-ethyl-4-[2-(4-methylpiperazin-1-yl)ethoxy]phenyl]-6-prop-1-ynyl-thieno[2,3-d]pyrimidin-4-yl]oxy-3-[2-[[2-(2-methoxyphenyl)pyrimidin-4-yl]methoxy]phenyl]propanoic Acid]
IC50 (Mcl-1 protein): 2.6 nM | IC50 ([1]; Homo sapiens): 1.88 nM

Cc1c(-c2c(-c3ccc(F)cc3)sc3ncnc(O[C@H](Cc4ccccc4OCc4ccnc(-c5cccc(OS(=O)(=O)O)c5)n4)C(=O)O)c23)ccc(OCCN2CCN(C)CC2)c1Cl [C8, (2R)-2-[(5Sa)-5-[3-chloro-2-methyl-4-[2-(4-methylpiperazin-1-yl)ethoxy]phenyl]-6-(4-fluorophenyl)thieno[2,3-d]pyrimidin-4-yl]oxy-3-[2-[[2-(3-sulfooxyphenyl)pyrimidin-4-yl]methoxy]phenyl]propanoic acid]
IC50 (Mcl-1 protein): 3 nM | IC50 ([1]; Homo sapiens): 574 nM

Cc1c(-c2c(-c3ccc(F)cc3)sc3ncnc(O[C@H](Cc4ccccc4OCc4ccnc(-c5cccc(S(=O)(=O)O)c5)n4)C(=O)O)c23)ccc(OCCN2CCN(C)CC2)c1Cl [C9, (2R)-2-{[(5Sa)-5-{3-chloro-2-methyl-4-[2-(4-methylpiperazin-1-yl)ethoxy]phenyl}-6-(4-fluorophenyl)thieno[2,3-d]pyrimidin-4-yl]oxy}-3-(2-{[2-(3-sulfophenyl)pyrimidin-4-yl]methoxy}phenyl)propanoic acid]
IC50 (Mcl-1 protein): 2.5 nM | IC50 ([1]; Homo sapiens): 2270 nM

COc1ccccc1-c1nccc(COc2ccccc2C[C@@H](Oc2ncnc3sc(-c4ccc(F)c(OCC(F)(F)F)c4)c(-c4ccc(OCCN5CCN(C)CC5)c(Cl)c4C)c23)C(=O)O)n1 [C10, (2R)-2-[(5Sa)-5-[3-chloro-2-methyl-4-[2-(4-methylpiperazin-1-yl)ethoxy]phenyl]-6-[4-fluoro-3-(2,2,2-trifluoroethoxy)phenyl]thieno[2,3-d]pyrimidin-4-yl]oxy-3-[2-[[2-(2-methoxyphenyl)pyrimidin-4-yl]methoxy]phenyl]propanoic Acid]
IC50 (Mcl-1 protein): 3.4 nM | IC50 ([1]; Homo sapiens): 13.5 nM

COc1ccccc1-c1nccc(COc2ccccc2C[C@@H](Oc2ncnc3sc(-c4cc(N)c(F)c(F)c4)c(-c4ccc(OCCN5CCN(C)CC5)c(Cl)c4C)c23)C(=O)O)n1 [C13, (2R)-2-{[(5Sa)-6-(3-amino-4,5-difluorophenyl)-5-{3-chloro-2-methyl-4-[2-(4-methylpiperazin-1-yl)ethoxy]phenyl}thieno[2,3-d]pyrimidin-4-yl]oxy}-3-(2-{[2-(2-methoxyphenyl)pyrimidin-4-yl]methoxy}phenyl)propanoic acid]
IC50 (Mcl-1 protein): 2.2 nM | IC50 ([1]; Homo sapiens): 3.76 nM

COc1c(O)cccc1-c1nccc(COc2ccccc2C[C@@H](Oc2ncnc3sc(-c4ccc(F)cc4)c(-c4ccc(OCCN5CCN(C)CC5)c(Cl)c4C)c23)C(=O)O)n1 [C14, (2R)-2-{[(5Sa)-5-{3-chloro-2-methyl-4-[2-(4-methylpiperazin-1-yl)ethoxy]phenyl}-6-(4-fluorophenyl)thieno[2,3-d]pyrimidin-4-yl]oxy}-3-(2-{[2-(3-hydroxy-2-methoxyphenyl)pyrimidin-4-yl]methoxy}phenyl)propanoic Acid]
IC50 (Mcl-1 protein): 0.84 nM | IC50 ([1]; Homo sapiens): 2.61 nM

COCCOCCOCCOCCOCCOCCOCCOCCOCCOCCOCCOCCC(=O)N(C)Cc1cc(NC(=O)[C@H](CCCNC(N)=O)NC(=O)[C@@H](NC(=O)CCOCCN2C(=O)CC(C)C2=O)C(C)C)ccc1C[N+]1(C)CCN(CCOc2ccc(-c3c(-c4ccc(F)cc4)sc4ncnc(O[C@H](Cc5ccccc5OCc5ccnc(-c6ccccc6OC)n5)C(=O)O)c34)c(C)c2Cl)CC1 (stereo partly drawn) [CD74-L32-P1]
T/C (%) ([2]; day 10): 4*^$ % | ΔTumor volume (mm^3) ([2]; female SCID beige mice, day 10, mean): 38 mm^3

COc1ccccc1-c1nccc(COc2ccccc2C[C@@H](Oc2ncnc3sc(-c4ccc(F)cc4)c(-c4ccc(OCCN5CC[N+](C)(Cc6ccc(NC(=O)[C@H](CCCNC(N)=O)NC(=O)[C@@H](NC(=O)CCOCCN7C(=O)C=CC7=O)C(C)C)cc6CN(C)C(=O)OC[C@H](NC(=O)CS(=O)(=O)O)C(=O)O)CC5)c(Cl)c4C)c23)C(=O)O)n1 [L77-P1]
IC50 (EOL-1): 0.383 nM | EOL-1 Amax (EOL-1; [3]): 102.6 | IC50 (MONO-MAC-1): 0.987 nM | MONO-MAC-1 Amax (MONO-MAC-1): 108.2 | IC50 (NOMO-1): 3.19 nM | NOMO-1 Amax (NOMO-1; [3]): 48.53

(2R)-2-{[(5Sa)-5-{3-chloro-2-methyl-4-[2-(4-methylpiperazin-1-yl)ethoxy]phenyl}-6-(4-fluorophenyl)thieno[2,3-d]pyrimidin-4-yl]oxy}-3-(2-{[2-(4-hydroxyphenyl)pyrimidin-4-yl]methoxy}phenyl)propanoic Acid [C5]
IC50 (Mcl-1 protein): 4.05 nM | IC50 [1]: 4.08 nM
